Usually IC50 stands for the concentration that inhibits the measured activity by half.

Each structure is given as a SMILES string.

The test system of the first assay is Human primary T cells. In words: IL-2 ELISA, human primary T cell, anti-CD3+CD28+ (whole cell assay). In kind it is cell-based. The note with it: Homo sapiens, T-cell, 24 h, human primary T cells stimulated with anti-CD3 + anti-CD28, 24 hours. On the procedure:
(§1) Human primary T cells were prepared as follows. Whole blood was obtained from a healthy volunteer, mixed 1:1 with PBS, layered on to Ficoll Hypaque (Amersham Pharmacia Biotech, Piscataway, N.J., Catalog #17-1440-03) in 2:1 blood/PBS:ficoll ratio and centrifuged for 30 minutes at 4° C. at 1750 rpm. The cells at the serum:ficoll interface were recovered and washed twice with 5 volumes of PBS. These freshly isolated human peripheral blood mononuclear cells were cultured in Yssel's medium containing 40 U/mL IL2 in a flask pre-coated with 1 μg/mL αCD3 and 5 μg/mL αCD28 (Anti-Human CD3, BD Pharmingen Catalog #555336, Anti-Human CD28, Beckman Coulter Catalog #IM1376). The cells were stimulated for 3-4 days, then transferred to a fresh flask and maintained in RPMI (RPMI-1640 with L-Glutamine; Mediatech, Inc., Herndon Va., cat. #10-040-CM) with 10% FBS and 40 U/mL IL-2. The primary T-cells were then washed twice with PBS to remove the IL-2.
Human primary T cells (100,000 cells per well) were pre-incubated with or without test compound in Yssel's medium for 1 hr at 37° C. Cells were then stimulated by transferring them to round-bottom 96-well plates pre-coated with 1 μg/ml μCD3 and 5 μg/ml μCD28. For counter assay, cells were instead stimulated by adding 8× stock solutions of PMA and ionomycin in Yssels (for final concentrations of 0.5 ng/ml PMA and 0.1 μM ionomycin, both from Calbiochem). Cells were incubated at 37° C. for 24 hours before 100 μL supernatants were harvested for quantification of IL-2 by ELISA using Human IL-2 Duoset ELISA Kit from R and D Systems, Cat. #DY202E.
as §1, with “Human primary T cell isolation and culture: Human primary” for “Human primary”, “for 30 min at 4°” for “for 30 minutes at 4°”, “at the serum: ficoll interface were” for “at the serum:ficoll interface were”
Primary T cell stimulation and IL2 ELISA: Human primary T cells (100,000 cells per well) were pre-incubated with or without test compound in Yssel's medium for 1 hr at 37° C. Cells were then stimulated by transferring them to round-bottom 96-well plates pre-coated with 1 μg/ml αCD3 and 5 μg/ml αCD28. For counter assay, cells were instead stimulated by adding 8× stock solutions of PMA and ionomycin in Yssels (for final concentrations of 0.5 ng/ml PMA and 0.1 μM ionomycin, both from Calbiochem). Cells were incubated at 37° C. for 24 hours before 100 μL supernatants were harvested for quantification of IL-2 by ELISA using Human IL-2 Duoset ELISA Kit from R and D Systems, Cat. #DY202E.
(In general: ELISA stands for enzyme-linked immunosorbent assay.)
Regarding `[2H]C([2H])([2H])N1C(C)(C)CC(Nc2nc(Nc3cccc(-n4cnnn4)c3)ncc2F)CC1(C)C` [III-114, 5-fluoro-N2-(3-(1H-tetrazol-1-yl)phenyl)-N4-(1-trideuteromethyl-2,2,6,6-tetramethylpiperidin-4-yl)pyrimidine-2,4-diamine], the half-inhibitory concentration (IC50) was below 250 nM.

Turning to `CC1(C)CC(Nc2nc(Nc3ccc(OC4CCN(CC(N)=O)CC4)c(OC(F)F)c3)ncc2F)CC(C)(C)N1` [III-36, 2-(4-(2-(Difluoromethoxy)-4-(5-fluoro-4-(2,2,6,6-tetramethylpiperidin-4-ylamino)pyrimidin-2-ylamino)phenoxy)piperidin-1-yl)acetamide], the IC50 is above 1000 nM. For `Cc1nnnn1-c1cc(Nc2ncc(F)c(NC3CC(C)(C)N(C)C(C)(C)C3)n2)ccc1F` [Compound I-9, 5-fluoro-N2-(4-fluoro-3-(5-methyl-1H-tetrazol-1-yl)phenyl)-N4-(1,2,2,6,6-pentamethylpiperidin-4-yl)pyrimidine-2,4-diamine], the IC50 was below 250 nM. Regarding `CN1C(C)(C)CC(Nc2nc(Nc3ccc4c(c3)OCC(CN3CCOCC3)O4)ncc2F)CC1(C)C` (stereo not shown) [II-6, 5-fluoro-N2-(2,3-dihydro-2-(morpholinomethyl)benzo[b][1,4]dioxin-6-yl)-N4-(1,2,2,6,6-pentamethylpiperidin-4-yl)pyrimidine-2,4-diamine], the IC50 was above 1000 nM.

On to `Cc1nnnn1-c1cc(Nc2ncc(F)c(NC3CC(C)(C)N(C)C(C)(C)C3)n2)ccc1OC1CCN(C(C)C)CC1` [III-1, 5-fluoro-N2-(4-(1-isopropylpiperidin-4-yloxy)-3-(5-methyl-1H-tetrazol-1-yl)phenyl)-N4-(1,2,2,6,6-pentamethylpiperidin-4-yl)pyrimidine-2,4-diamine], for which the IC50 lay in the range of 250 to 500 nM. Consider `Cn1nnnc1-c1cc(C#N)cc(Nc2ncc(F)c(NC3CC(C)(C)NC(C)(C)C3)n2)c1` [III-143, 3-(5-fluoro-4-(2,2,6,6-tetramethylpiperidin-4-ylamino)pyrimidin-2-ylamino)-5-(1-methyl-1H-tetrazol-5-yl)benzonitrile], for which the IC50 was in the range of 500 to 1000 nM.

In the case of `CN1C(C)(C)CC(Nc2nc(Nc3cc(OC(F)F)cc(C(F)(F)F)c3)ncc2F)CC1(C)C` [Compound I-107, N2-(3-(difluoromethoxy)-5-(trifluoromethyl)phenyl)-5-fluoro-N4-(1,2,2,6,6-pentamethylpiperidin-4-yl)pyrimidine-2,4-diamine], the 50% inhibitory concentration (IC50) is 250 to 500 nM. Same read-out and setting: to `CN1C(C)(C)CC(Nc2nc(Nc3ccc(OC4CCOCC4)c(-c4nnnn4C)c3)ncc2F)CC1(C)C` [III-125, 5-fluoro-N2-(3-(1-methyl-1H-tetrazol-5-yl)-4-(tetrahydro-2H-pyran-4-yloxy)phenyl)-N4-(1,2,2,6,6-pentamethylpiperidin-4-yl)pyrimidine-2,4-diamine] belongs 250 to 500 nM. In the case of `CC1(C)CC(Nc2nc(Nc3ccc(OC4CCS(=O)(=O)CC4)c(OC(F)F)c3)ncc2F)CC(C)(C)N1` [III-32, N2-[3-Difluoromethoxy-4-(1,1-dioxo-hexahydro-1λ6-thiopyran-4-yloxy)-phenyl]-5-fluoro-N4-(2,2,6,6-tetramethyl-piperidin-4-yl)-pyrimidine-2,4-diamine], the half-maximal inhibitory concentration (IC50) was above 1000 nM. Take `CC(C)n1nnnc1-c1cccc(Nc2ncc(F)c(NC3CC(C)(C)NC(C)(C)C3)n2)c1` [III-71, 5-fluoro-N2-(3-(1-isopropyl-1H-tetrazol-5-yl)phenyl)-N4-(2,2,6,6-tetramethylpiperidin-4-yl)pyrimidine-2,4-diamine]: the half-inhibitory concentration (IC50) fell in the range of 500 to 1000 nM.

For `CC(C)Oc1ncc(Nc2ncc(C(N)=O)c(NC3CC(C)(C)N(C)C(C)(C)C3)n2)cc1-c1nnnn1C` [Compound I-128, 2-(6-isopropoxy-5-(1-methyl-1H-tetrazol-5-yl)pyridin-3-ylamino)-4-(1,2,2,6,6-pentamethylpiperidin-4-ylamino)pyrimidine-5-carboxamide], the concentration for half-maximal inhibition (IC50) was above 1000 nM. Same read-out and setting: to `CN1C(C)(C)CC(Nc2nc(Nc3cc(C#N)cc(-c4nnnn4C)c3)ncc2F)CC1(C)C` [III-144, 3-(5-fluoro-4-(1,2,2,6,6-pentamethylpiperidin-4-ylamino)pyrimidin-2-ylamino)-5-(1-methyl-1H-tetrazol-5-yl)benzonitrile] belongs below 250 nM. On to `CC1(C)CC(Nc2nc(Nc3ccc(OC4CCN(CCO)CC4)c(F)c3)ncc2F)CC(C)(C)N1` [III-57, 2-(4-(2-fluoro-4-(5-fluoro-4-(2,2,6,6-tetramethylpiperidin-4-ylamino)pyrimidin-2-ylamino)phenoxy)piperidin-1-yl)ethanol], for which the IC50 is above 1000 nM. The same measure, in the same setting: with `CC(C)N1CCC(Oc2ccc(Nc3ncc(F)c(NC4CC(C)(C)N(C)C(C)(C)C4)n3)cc2C(F)(F)F)CC1` [III-101, 5-fluoro-N2-(4-(1-isopropylpiperidin-4-yloxy)-3-(trifluoromethyl)phenyl)-N4-(1,2,2,6,6-pentamethylpiperidin-4-yl)pyrimidine-2,4-diamine] the figure was below 250 nM. As to `CC1(C)CC(Nc2nc(Nc3ccc(OC4CCN(S(C)(=O)=O)CC4)c(F)c3)ncc2F)CC(C)(C)N1` [III-15, 5-fluoro-N2-(3-fluoro-4-(1-(methylsulfonyl)piperidin-4-yloxy)phenyl)-N4-(2,2,6,6-tetramethylpiperidin-4-yl)pyrimidine-2,4-diamine], the IC50 was above 1000 nM. Still for that read-out and setting: with `CC1(C)CC(Nc2nc(Nc3cc(F)cc(OCCn4ccnn4)c3)ncc2F)CC(C)(C)N1` [Compound I-8, N2-(3-(2-(1H-1,2,3-triazol-1-yl)ethoxy)-5-fluorophenyl)-5-fluoro-N4-(2,2,6,6-tetramethylpiperidin-4-yl)pyrimidine-2,4-diamine] the figure was above 1000 nM; with `CC(C)N1CCC(Oc2ccc(Nc3ncc(F)c(NC4CC(C)(C)NC(C)(C)C4)n3)cc2C#N)CC1` [Compound I-150, 2-(1-isopropylpiperidin-4-yloxy)-5-(4-(2,2,6,6-tetramethylpiperidin-4-ylamino)-5-fluoropyrimidin-2-ylamino)benzonitrile], below 250 nM; with `CC1(C)CC(Nc2nc(Nc3cccc(-c4nn[nH]n4)c3)ncc2F)CC(C)(C)N1` [III-69, N2-(3-(2H-tetrazol-5-yl)phenyl)-5-fluoro-N4-(2,2,6,6-tetramethylpiperidin-4-yl)pyrimidine-2,4-diamine], above 1000 nM. Take `Cc1ccc(Nc2ncc(F)c(NC3CC(C)N(C4CC4)C(C)C3)n2)cc1-n1cnnn1` (stereo not shown) [III-6, N^4-(1-cyclopropyl-2,6-dimethylpiperidin-4-yl)-5-fluoro-N2-(4-methyl-3-(1H-tetrazol-1-yl)phenyl)pyrimidine-2,4-diamine]: the half-inhibitory concentration (IC50) was in the range of 250 to 500 nM. As to `CC(C)N1CCC(Oc2ccc(Nc3ncc(F)c(NC4CC(C)(C)N(C)C(C)(C)C4)n3)cc2OC(F)F)CC1` [Compound I-105, N2-(4-(1-isopropylpiperidin-4-yloxy)-3-(difluoromethoxy)phenyl)-5-fluoro-N4-(1,2,2,6,6-pentamethylpiperidin-4-yl)pyrimidine-2,4-diamine], the 50% inhibitory concentration (IC50) was below 250 nM.

The same assay, now with this note: human primary T cells stimulated with anti-CD3 + anti-CD28, 24 hours.
Take `CC1(C)CC(Nc2nc(Nc3cccc(-n4nnnc4SCC(F)(F)F)c3)ncc2C(N)=O)CC(C)(C)N1` [Compound I-72, 5-aminocarbonyl-N4-(2,2,6,6-tetramethylpiperidin-4-yl)-N2-{3-[5-(2,2,2-trifluoroethyl)thio]-1H-tetrazol-1-yl}phenyl-2,4-pyrimidinediamine]: the IC50 was above 1000 nM. Regarding `CCCc1nnnn1-c1cc(Nc2ncc(F)c(NC3CC(C)(C)NC(C)(C)C3)n2)ccc1OC` [Compound I-74, 5-fluoro-N2-[4-methoxy-3-(5-propyl-1H-tetrazol-1-yl)]phenyl-N4-(2,2,6,6-tetramethylpiperidin-4-yl)-2,4-pyrimidinediamine], the concentration for half-maximal inhibition (IC50) is below 250 nM.

Values taken from US9149475B2, “Protein kinase C inhibitors and uses thereof” (Rigel Pharmaceuticals, Inc., priority 2009, dated 2015).
